Publication PMC4774972, “Activity and Predicted Nephrotoxicity of Synthetic Antibiotics Based on Polymyxin B” (Journal of Medicinal Chemistry, 2016)
Numbered stars: 1 amine (or outer) side, 2 acyl side, 3 side chain; on linkers, the order of the positions; unused ones are H or OH. Bridge positions count the residues as written; N and C are the ends. Square brackets hold non-standard residues; d marks the D form. Peptide text beside a SMILES is read from it. * marks the point of attachment. X1 = c1ccc(-c2ccc(N*)cc2)cc1; NH(2-ClPh) = Clc1ccccc1N*; dDab = NCC[C@@H](N)C(=O)O; hSer = N[C@@H](CCO)C(=O)O; Octanoyl = CCCCCCCC(=O)*; Dab = NCC[C@H](N)C(=O)O; CO = O=C([*:1])[*:2]

Experiments:
[1] = tested on: K. pneumoniae CI 138-16357-20362, PmxR; experiment: microbe, parasite or virus in culture; assay type: cell-based, Klebsiella pneumoniae; conditions: carbapenem & polymyxin resistant clinical isolate; MHB, 5 × 10^5 CFU/mL, 18 h at 37 °C
Method: (§1) Bacteria were either obtained from American Type Culture Collection (ATCC; Manassas, VA, USA) or independent academic clinical isolate collections, as listed in Table S2. Bacteria were cultured in nutrient broth (NB; Bacto Laboratories, catalog no. 234000) or Muller Hinton broth (MHB; Bacto Laboratories, catalog no. 211443) at 37 °C overnight with shaking (∼180 rpm). A sample of each culture was then diluted 50-fold in fresh MHB and incubated at 37 °C for 1.5–3 h with shaking (∼180 rpm). Compound stock solutions were prepared as 0.64 or 2.56 mg/mL in water. The compounds, at twice the final desired concentration, were serially diluted 2-fold across the wells of 96-well plates (Polystyrene, Corning, catalogue No. 3370). Mid log phase bacterial cultures (after 1.5–3 h incubation) were diluted to a final concentration of 5 × 10^5 colony forming units (CFU)/mL, and 50 μL was added to each well giving a final compound concentration range of 32 μg/mL to 0.015 μg/mL (128–0.06 μg/mL for colistin and polymyxin B against the polymyxin resistant clinical isolates). MICs were determined visually after 18 h of incubation at 37 °C, with the MIC defined as the lowest compound concentration at which no bacterial growth was visible.
(§2) Table S2. Bacterial strains used for Minimum Inhibitory Concentration (MIC) […]
(§3) Organism Strain Strain description Strain Source
(§4) Escherichia coli ATCC 25922 FDA strain Seattle 1946 ATCC
(§5) Klebsiella pneumoniae ATCC 13883 Control strain ATCC
(§6) Klebsiella pneumoniae ATCC 700603 Multi-drug resistant ATCC
(§7) Klebsiella pneumoniae BAA-2146 Metallo-beta-lactamase- ATCC
(§8) Acinetobacter baumannii ATCC 19606 Type strain ATCC
(§9) Pseudomonas aeruginosa ATCC 27853 Type strain ATCC
(§10) Pseudomonas aeruginosa FADDI-PA070 Clinical isolate, Nation and Li labs, polymyxin resistant Monash University
(§11) Clinical isolate, Wang Hengzhuang, Pseudomonas aeruginosa PA9704 polymyxin resistant University Hospital of […]
(§12) Ptyela Clinical isolate, Ilias Karaiskos and Acinetobacter baumannii Carbapenem & Helen Giamarellou
(§13) Clinical isolate, Medicine, Hygeia
(§14) Klebsiella pneumoniae Koprana Carbapenem, & General Hospital, […]
(§15) Clinical isolate, (Instituto Dante […]
(§16) polymyxin resistant Cardiologia, São […]

[2] = tested on: primary human renal proximal tubule epithelial (hPT) cells; experiment: Nephrotoxicity assay, GGT release; assay type: cell-based; conditions: primary human kidney cells
Excerpt: (§17) Primary human renal proximal tubule epithelial (hPT) cells were isolated and used for in vitro prediction of drug-induced nephrotoxicity[63],[64],[69] by measuring the release of metabolism enzymes, LDH and GGT, as previously described.[70]

[3] = tested on: K. pneumoniae CI 138-16357-20362, PmxR; conditions: MIC K. pneumoniae CI 138-16357-20362, PmxR (µg/mL)
[4] = tested on: primary human renal proximal tubule epithelial (hPT) cells; experiment: Nephrotoxicity assay, LDH release; assay type: cell-based; conditions: primary human kidney cells
Excerpt: as §17

HepG2 = conditions: CC50 HepG2 (µM)
[5] = tested on: K. pneumoniae CI Koprana 100650661:1, PmxR; experiment: microbe, parasite or virus in culture; assay type: cell-based, Klebsiella pneumoniae; conditions: carbapenem & polymyxin resistant clinical isolate; MHB, 5 × 10^5 CFU/mL, 18 h at 37 °C
Method: as §1, §2, §3, §4, §5, §6, §7, §8, §9, §10, §11, §12, §13, §14, §15, §16

[6] = tested on: S. aureus ATCC 25923, MSSA; experiment: microbe, parasite or virus in culture; assay type: cell-based, Staphylococcus aureus; conditions: MHB, 5 × 10^5 CFU/mL, read visually after 18 h at 37 °C
Method: as §1, §2, §3, §4, §5, §6, §7, §8, §9, §10, §11, §12, §13, §14, §15, §16

[7] = tested on: A. baumannii CI Ptyela 100734512:2, PmxR; experiment: microbe, parasite or virus in culture; assay type: cell-based, Acinetobacter baumannii; conditions: carbapenem & polymyxin resistant clinical isolate; MHB, 5 × 10^5 CFU/mL, 18 h at 37 °C
Method: as §1, §2, §3, §4, §5, §6, §7, §8, §9, §10, §11, §12, §13, §14, §15, §16

[8] = tested on: K. pneumoniae CI Koprana 100650661:1, PmxR; conditions: MIC K. pneumoniae CI Koprana 100650661:1, PmxR (µg/mL)
[9] = tested on: S. aureus ATCC 25923, MSSA; conditions: MIC S. aureus ATCC 25923, MSSA (µg/mL)
[10] = tested on: A. baumannii CI Ptyela 100734512:2, PmxR; conditions: MIC A. baumannii CI Ptyela 100734512:2, PmxR (µg/mL)
[11] = tested on: P. aeruginosa PA9704, PmxR; conditions: MIC P. aeruginosa PA9704, PmxR (µg/mL)
HepG2 cells = experiment: Cytotoxicity assay (resazurin assay); assay type: cell-based, human; conditions: 4000 cells/well, 24 h incubation with compound, fluorescence 560/590
Method: Cytotoxicity to HEK293 and HepG2 cells was determined using the resazurin assay.[67],[68] […] Compounds were then added into each well. After 24 h incubation, 5 μM resazurin was added per well and incubated at 37 °C for 2 h. Fluorescence intensity was then read using a Polarstar Omega with excitation/emission 560/590. The data were then analyzed using GraphPad Prism 6 software. CC50 values were determined using GraphPad Prism 6 software (Inc. La Jolla, CA).

[12] = tested on: P. aeruginosa PA9704, PmxR; assay type: cell-based, Pseudomonas aeruginosa; conditions: polymyxin resistant clinical isolate; MHB, 5 × 10^5 CFU/mL, 18 h at 37 °C
Method: as §1, §2, §3, §4, §5, §6, §7, §8, §9, §10, §11, §12, §13, §14, §15, §16

[13] = tested on: K. pneumoniae ATCC 700603, MDR; conditions: MIC K. pneumoniae ATCC 700603, MDR(µg/mL)
K. pneumoniae ATCC 13883 = conditions: MIC K. pneumoniae ATCC 13883 (µg/mL)
[14] = tested on: P. aeruginosa FADDI-PA070, PmxR; conditions: MIC P. aeruginosa FADDI-PA070, PmxR (µg/mL)
E. coli ATCC 25922 = conditions: MIC E. coli ATCC 25922 (µg/mL)
A. baumannii ATCC 19606 = conditions: MIC A. baumannii ATCC 19606 (µg/mL)
P. aeruginosa ATCC 27853 = conditions: MIC P. aeruginosa ATCC 27853 (µg/mL)

| Structure (SMILES) | MIC K. pneumoniae CI 138-16357-20362, PmxR [1] [µg/mL] | GGT release CC50 [2] [µg/mL] | MIC [3] [µg/mL] | LDH release CC50 [4] [µg/mL] | CC50 (HepG2) [µM] | MIC K. pneumoniae CI Koprana 100650661:1, PmxR [5] [µg/mL] | MIC S. aureus ATCC 25923, MSSA [6] [µg/mL] | MIC A. baumannii CI Ptyela 100734512:2, PmxR [7] [µg/mL] | MIC [8] [µg/mL] | MIC [9] [µg/mL] | MIC [10] [µg/mL] | MIC [11] [µg/mL] | HepG2 - CC50 (HepG2 cells) [µM] | MIC P. aeruginosa PA9704, PmxR [12] [µg/mL] | MIC [13] [µg/mL] | MIC (K. pneumoniae ATCC 13883) [µg/mL] | MIC [14] [µg/mL] | MIC (E. coli ATCC 25922) [µg/mL] | MIC (A. baumannii ATCC 19606) [µg/mL] | MIC (P. aeruginosa ATCC 27853) [µg/mL] |
| --- | --- | --- | --- | --- | --- | --- | --- | --- | --- | --- | --- | --- | --- | --- | --- | --- | --- | --- | --- | --- |
| CC(C)C[C@@H]1NC(=O)[C@@H](Cc2ccccc2)NC(=O)[C@H](CCN)NC(=O)[C@@H](NC(=O)[C@H](CCN)NC(=O)[C@@H](NC(=O)[C@H](CCN)NC(=O)Nc2ccc(-c3ccccc3)cc2)[C@@H](C)O)CCNC(=O)[C@H]([C@@H](C)O)NC(=O)[C@H](CCN)NC(=O)[C@H](CCN)NC1=O [Compound 15] ({X1-CO}-[Dab]T[Dab][Dab][Dab][dF]L[Dab][Dab]T; lactam 4-C) | >32 | >128 | > 32 | >128 | 316 | – | – | – | – | – | – | – | – | – | – | – | – | – | – | – |
| CC(C)C[C@@H]1NC(=O)[C@@H](Cc2ccccc2)NC(=O)[C@H](CCN)NC(=O)[C@@H](NC(=O)[C@@H](CCN)NC(=O)[C@@H](NC(=O)[C@H](CCN)NC(=O)Nc2ccccc2Cl)[C@@H](C)O)CCNC(=O)[C@H]([C@@H](C)O)NC(=O)[C@H](CCN)NC(=O)[C@H](CCN)NC1=O [Compound 16] ({NH(2-ClPh)-CO}-[Dab]T[dDab][Dab][Dab][dF]L[Dab][Dab]T; lactam 4-C) | >32 | – | > 32 | – | > 300 | >32 | >32 | >32 | > 32 | > 32 | > 32 | > 32 | >300 | >32 | – | – | – | – | – | – |
| CCCCCCCC(=O)N[C@@H](CCN)C(=O)N[C@H](C(=O)N[C@@H](CCN)C(=O)N[C@H]1CCNC(=O)[C@H]([C@@H](C)O)NC(=O)[C@H](CCN)NC(=O)[C@H](CCN)NC(=O)[C@H](CC(C)C)NC(=O)[C@@H](Cc2ccccc2)NC(=O)[C@H](CCNC(=O)[C@@H](N)CCC(=O)O)NC1=O)[C@@H](C)O [Compound 32] (Octanoyl-[Dab]T[Dab][Dab][Dab](Glu)[dF]L[Dab][Dab]T; lactam 4-C) | >32 | – | > 32 | – | > 300 | >32 | – | – | > 32 | > 32 | > 32 | > 32 | – | – | > 32 | > 32 | > 32 | > 32 | > 32 | > 32 |
| CCCCCCCC(=O)N[C@@H](CCN)C(=O)N[C@H](C(=O)N[C@@H](CCN)C(=O)N[C@H]1CCNC(=O)[C@H]([C@@H](C)O)NC(=O)[C@H](CCN)NC(=O)[C@H](CCN)NC(=O)[C@H](CC(C)C)NC(=O)[C@@H](Cc2ccccc2)NC(=O)[C@H](CCO)NC1=O)[C@@H](C)O [Compound 33] (Octanoyl-[Dab]T[Dab][Dab][hSer][dF]L[Dab][Dab]T; lactam 4-C) | >32 | – | > 32 | – | > 300 | >32 | – | – | > 32 | > 32 | > 32 | > 32 | – | – | > 32 | > 32 | > 32 | – | > 32 | > 32 |
